Data taken from patent US7402548B2, “Benzoxazole compounds, process for producing the same and herbicides” (Kyoyu Agri Co., Ltd., priority 2000, dated 2008).

Legend:
monochoria = test: Herbicidal test for paddy field; assay type: in vivo, Monochoria vaginalis; settings: 500 g/ha, dropwise addition to paddy water at 1.5 leaf stage of barnyard grass; glass house 25° C., 3 weeks; rank 0-5 vs non-treated district
Description: (§1) Wagner pots, each having an area of 1/5000 are, were packed with Ube soil (alluvial soil) and planted with seeds or tubers of young rice plant, barnyard grass, bulrush, Cyperus serotinus Rottb., arrowhead and monochoria. Then, the pots were filled with water to a depth of 3 cm.
(§2) Each wettable powder of the desired Compounds (I) shown in Tables 1 to 21, 24, 25, 28 and 29 prepared in accordance with Example 2 was diluted with water containing a surfactant (0.05%) and subjected to dropwise addition treatment by using pipet so that an effective concentration of the compound (I) in each herbicide became 500 g/ha at 1.5 leaf stage of barnyard grass.
(§3) These plants were controlled in a glass house at an average temperature of 25° C. for 3 weeks, and then herbicidal effects thereof were investigated.
(§4) The herbicidal effects are evaluated according to the following 6 ranks as compared with non-treated district. (0: normal development, 1: Less damaged, 2: Slightly damaged, 3: Moderately damaged, 4: Severely damaged, 5: All killed). Incidentally, “-” in the column means not investigated.

barnyard grass [1] = test: Herbicidal test for paddy field; assay type: in vivo, Eschinochloa crusgalli; settings: 500 g/ha, dropwise addition to paddy water at 1.5 leaf stage of barnyard grass; glass house 25° C., 3 weeks; rank 0-5 vs non-treated district
Description: as §1, §2, §3, §4

corn [2] = test: Soil treatment test for upland field; assay type: in vivo; parameters: key: 0 = normal development, 5 = all killed; settings: 500 g/ha, 3 weeks, glass house 25° C.
In short: (§5)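 Surface spray of freshly sown alluvial soil, 500 g/ha compound, water containing 0.05% surfactant. Visual 0–5 damage rating versus untreated after 3 weeks, glasshouse at 25° C average.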

wheat [3] = test: Soil treatment test for upland field; assay type: in vivo; parameters: key: 0 = normal development, 5 = all killed; settings: 500 g/ha, 3 weeks, glass house 25° C.
In short: as §5

Large crabgrass [4] = test: Soil treatment test for upland field; assay type: in vivo, Digitaria adscendens; parameters: key: 0 = normal development, 5 = all killed; settings: 500 g/ha, 3 weeks, glass house 25° C.
In short: as §5

barnyard grass [5] = test: Soil treatment test for upland field; assay type: in vivo, Eschinochloa crusgalli; parameters: key: 0 = normal development, 5 = all killed; settings: 500 g/ha, 3 weeks, glass house 25° C.
In short: as §5

green foxtail [6] = test: Soil treatment test for upland field; assay type: in vivo, Setaria viridis; parameters: key: 0 = normal development, 5 = all killed; settings: 500 g/ha, 3 weeks, glass house 25° C.
In short: as §5

annual bluegrass [7] = test: Soil treatment test for upland field; assay type: in vivo, Poa annua; parameters: key: 0 = normal development, 5 = all killed; settings: 500 g/ha, 3 weeks, glass house 25° C.
In short: as §5

common lambsquarters [8] = test: Soil treatment test for upland field; assay type: in vivo, Chenopodium album; parameters: key: 0 = normal development, 5 = all killed; settings: 500 g/ha, 3 weeks, glass house 25° C.
In short: as §5

livid amaranth [9] = test: Soil treatment test for upland field; assay type: in vivo, Amaranthus lividus; parameters: key: 0 = normal development, 5 = all killed; settings: 500 g/ha, 3 weeks, glass house 25° C.
In short: as §5

wheat [10] = test: Foliar spread test for upland field; assay type: in vivo; parameters: key: 0 = normal development, 5 = all killed (6 ranks vs. untreated); settings: foliar spray, 500 ppm, 3 weeks, glass house 25° C.
In short: (§6)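 Scores on a 0–5 scale (0 normal development, 5 all killed), relative to untreated controls, were taken 3 weeks post-treatment in a 25 °C glass house. Treatment was a uniform foliar spray at 500 ppm (0.5% surfactant) onto roughly 2-week-old soil-grown plants.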

common lambsquarters [11] = test: Foliar spread test for upland field; assay type: in vivo, Chenopodium album; parameters: key: 0 = normal development, 5 = all killed (6 ranks vs. untreated); settings: foliar spray, 500 ppm, 3 weeks, glass house 25° C.
In short: as §6

livid amaranth [12] = test: Foliar spread test for upland field; assay type: in vivo, Amaranthus lividus; parameters: key: 0 = normal development, 5 = all killed (6 ranks vs. untreated); settings: foliar spray, 500 ppm, 3 weeks, glass house 25° C.
In short: as §6

soybean [13] = test: Soil treatment test for upland field; assay type: in vivo; parameters: key: 0 = normal development, 5 = all killed; settings: 500 g/ha, 3 weeks, glass house 25° C.
In short: as §5

bulrush = test: Herbicidal test for paddy field; assay type: in vivo, Scrips juncoides; settings: 500 g/ha, dropwise addition to paddy water at 1.5 leaf stage of barnyard grass; glass house 25° C., 3 weeks; rank 0-5 vs non-treated district
Description: as §1, §2, §3, §4

Cyperus serotinus Rottb. = test: Herbicidal test for paddy field; assay type: in vivo; settings: 500 g/ha, dropwise addition to paddy water at 1.5 leaf stage of barnyard grass; glass house 25° C., 3 weeks; rank 0-5 vs non-treated district
Description: as §1, §2, §3, §4

arrowhead = test: Herbicidal test for paddy field; assay type: in vivo, Sagittaria pygmaea; settings: 500 g/ha, dropwise addition to paddy water at 1.5 leaf stage of barnyard grass; glass house 25° C., 3 weeks; rank 0-5 vs non-treated district
Description: as §1, §2, §3, §4

corn [14] = test: Foliar spread test for upland field; assay type: in vivo; parameters: key: 0 = normal development, 5 = all killed (6 ranks vs. untreated); settings: foliar spray, 500 ppm, 3 weeks, glass house 25° C.
In short: as §6

cotton = test: Foliar spread test for upland field; assay type: in vivo; parameters: key: 0 = normal development, 5 = all killed (6 ranks vs. untreated); settings: foliar spray, 500 ppm, 3 weeks, glass house 25° C.
In short: as §6

solgum = test: Foliar spread test for upland field; assay type: in vivo; parameters: key: 0 = normal development, 5 = all killed (6 ranks vs. untreated); settings: foliar spray, 500 ppm, 3 weeks, glass house 25° C.
In short: as §6

soybean [15] = test: Foliar spread test for upland field; assay type: in vivo; parameters: key: 0 = normal development, 5 = all killed (6 ranks vs. untreated); settings: foliar spray, 500 ppm, 3 weeks, glass house 25° C.
In short: as §6

sugar beat = test: Foliar spread test for upland field; assay type: in vivo; parameters: key: 0 = normal development, 5 = all killed (6 ranks vs. untreated); settings: foliar spray, 500 ppm, 3 weeks, glass house 25° C.
In short: as §6

Large crabgrass [16] = test: Foliar spread test for upland field; assay type: in vivo, Digitaria adscendens; parameters: key: 0 = normal development, 5 = all killed (6 ranks vs. untreated); settings: foliar spray, 500 ppm, 3 weeks, glass house 25° C.
In short: as §6

barnyardgrjass = test: Foliar spread test for upland field; assay type: in vivo, Eschinochloa crusgalli; parameters: key: 0 = normal development, 5 = all killed (6 ranks vs. untreated); settings: foliar spray, 500 ppm, 3 weeks, glass house 25° C.
In short: as §6

green foxtail [17] = test: Foliar spread test for upland field; assay type: in vivo, Setaria viridis; parameters: key: 0 = normal development, 5 = all killed (6 ranks vs. untreated); settings: foliar spray, 500 ppm, 3 weeks, glass house 25° C.
In short: as §6

blackgrass = test: Foliar spread test for upland field; assay type: in vivo, Alopecurus aegualis; parameters: key: 0 = normal development, 5 = all killed (6 ranks vs. untreated); settings: foliar spray, 500 ppm, 3 weeks, glass house 25° C.
In short: as §6

annual bluegrass [18] = test: Foliar spread test for upland field; assay type: in vivo, Poa annua; parameters: key: 0 = normal development, 5 = all killed (6 ranks vs. untreated); settings: foliar spray, 500 ppm, 3 weeks, glass house 25° C.
In short: as §6

velvetleaf = test: Foliar spread test for upland field; assay type: in vivo, Abutilon theophrasti; parameters: key: 0 = normal development, 5 = all killed (6 ranks vs. untreated); settings: foliar spray, 500 ppm, 3 weeks, glass house 25° C.
In short: as §6

morning glory = test: Foliar spread test for upland field; assay type: in vivo, Ipomoea spps.; parameters: key: 0 = normal development, 5 = all killed (6 ranks vs. untreated); settings: foliar spray, 500 ppm, 3 weeks, glass house 25° C.
In short: as §6

Cassia obtusifolia = test: Foliar spread test for upland field; assay type: in vivo; parameters: key: 0 = normal development, 5 = all killed; settings: foliar spray, 500 ppm, 3 weeks, glass house 25° C.
Description: as §4
(§7) Wagner pots, each having an area of 1/5000 are, were packed with volcanic ash soil and then each seed of corn, soybean, cotton, wheat, solgum, sugar beat, Large crabgrass, barnyardgrjass, green foxtail, blackgrass, annual bluegrass, common lambsquarters, livid amaranth, velvetleaf, morning glory, Xanthium pensylvanicum and Cassia obtusifolia was planted, covered with soil and grown in a glass house at an average temperature of 25° C. for about 2 weeks.
(§8) Each wettable powder of the desired compounds (I) shown in Tables 1 to 21, 24, 25, 28 and 29 prepared in accordance with Example 2 was diluted to 500 ppm with water containing a surfactant (0.5%) and then uniformly sprayed on the above respective plants.
(§9) After these plants were controlled in a glass house at an average temperature of 25° C. for 3 weeks, the herbicidal effects thereof were investigated.
(§10) The herbicidal effects were evaluated according to the evaluation method described in the above (1).

Xanthium pensylvanicum = test: Foliar spread test for upland field; assay type: in vivo; parameters: key: 0 = normal development, 5 = all killed; settings: foliar spray, 500 ppm, 3 weeks, glass house 25° C.
Description: as §4, §7, §8, §9, §10

| Compound | Effects Monochoria (monochoria) | Effects Barnyardgrass (barnyard grass [1]) | Effects Corn (corn [2]) | Effects Wheat (wheat [3]) | Effects Large crabgrass (Large crabgrass [4]) | Effects Common lambsquarters (common lambsquarters [8]) | Effects Livid amaranth (livid amaranth [9]) | Effects Wheat (wheat [10]) | Effects Common lambsquarters (common lambsquarters [11]) | Effects Livid amaranth (livid amaranth [12]) | other results |
| --- | --- | --- | --- | --- | --- | --- | --- | --- | --- | --- | --- |
| CCC(Oc1cc(C)nc(SC)n1)c1nc2cc(Cl)ccc2o1 (stereo not drawn) [Compound 1-e-64] | 4 | – | – | – | – | – | – | – | – | – | – |
| CCC(Oc1cc(C(F)(F)F)nn1C)c1nc2cc(C#N)c(Cl)cc2o1 (stereo not drawn) [Compound 1-e-11] | 4 | 4 | 0 | 0 | 5 | 5 | 5 | 1 | 5 | 5 | Effects Barnyardgrass (barnyard grass [5]): 4; Effects Green foxtail (green foxtail [6]): 5; Effects Annual bluegrass (annual bluegrass [7]): 5 |
| CCCC(Oc1cc(C)nc(C#N)n1)c1nc2cc(C#N)ccc2o1 (stereo not drawn) [Compound 1-e-70] | 3 | – | 0 | 0 | 2 | 3 | 5 | – | – | – | Effects Soybean (soybean [13]): 0 |
| N#Cc1ccc2oc(-c3cccc(Oc4cccc(C(F)(F)F)c4)n3)nc2c1 [I-a-18] | – | 3 | – | – | – | – | – | 1 | 4 | 5 | Effects Bulrush (bulrush): 0; Effects Cyperus serotinus Rottb. (Cyperus serotinus Rottb.): 0; Effects Arrowhead (arrowhead): 0; Effects Corn (corn [14]): 1; Effects Sotton (cotton): 4; Effects Solgum (solgum): 1; Effects Soybean (soybean [15]): 3; Effects Sugar beat (sugar beat): 4; Effects Large crabgrass (Large crabgrass [16]): 2; Effects Barnyardgrass (barnyardgrjass): 1; Effects Green foxtail (green foxtail [17]): 5; Effects Blackgrass (blackgrass): 1; Effects Annual bluegrass (annual bluegrass [18]): 2; Effects Velvetleaf (velvetleaf): 4; Effects Morning glory (morning glory): 5; Effects Sicklepod (Cassia obtusifolia): 5; Effects Common Cocklebur (Xanthium pensylvanicum): 4 |
